Active and inactive are the calls of the source. The calls are words filed in the database; no cut-off is given here.
Legend:
MCF/ADR [1] = assay: Decrease in p53 accumulation in human multidrug resistant MCF/ADR cells at 0.3 uM after 72 hrs by immunoblot analysis; assay type: functional, cell-based
MCF/ADR [2] = assay: Reduction in induction of apoptosis in human multidrug resistant MCF/ADR cells assessed as suppression of PARP cleavage at 0.3 uM after 48 hrs by immunoblot analysis in presence of rottlerin; assay type: functional, cell-based
MCF/WT [3] = assay: Induction of apoptosis in human drug sensitive MCF/WT cells assessed as propidium iodide binding to phosphatidylserine at 0.3 uM after 6 hrs; assay type: functional, cell-based
MCF/ADR [4] = assay: Reduction of […] cleavage in human multidrug resistant MCF/ADR cells transfected with c-Jun siRNA at 0.3 uM after 48 hrs by immunoblot analysis; assay type: functional, cell-based
[5] = Cell cycle arrest in human multidrug resistant MCF/ADR cells assessed as accumulation at G2/M phase at 0.3 uM after 72 hrs by propidium fluorescence flow cytometry; assay type: functional, cell-based
[6] = Cell cycle arrest in human drug-sensitive MCF/WT cells assessed as accumulation at G2/M phase at 0.3 uM after 24 hrs by propidium fluorescence flow cytometry; assay type: functional, cell-based
MCF/ADR [7] = assay: Inhibition of induction of apoptosis in human multidrug resistant MCF/ADR cells assessed as inhibition of cleavage of lamin A at 0.3 uM after 48 hrs by immunoblot analysis in presence of pan-specific inhibitor; assay type: functional, cell-based
[8] = Cell cycle arrest in human drug-sensitive MCF/WT cells assessed as accumulation at sub G0/G1 phase at 0.3 uM after 72 hrs by propidium fluorescence flow cytometry; assay type: functional, cell-based
MCF/ADR [9] = assay: Reduction in induction of apoptosis in human multidrug resistant MCF/ADR cells assessed as suppression of caspase 9 activation at 0.3 uM after 48 hrs by immunoblot analysis in presence of rottlerin; assay type: functional, cell-based
[10] = Effect on cell morphology in human multidrug resistant MCF/ADR cells assessed as floating cells with intact plasma membrane at 0.3 uM after 72 hrs by trypan blue dye exclusion test; assay type: functional
[11] = target: Transcription factor Jun (Homo sapiens) (UniProt P05412); assay: Reduction in induction of c-Jun expression in human multidrug resistant MCF/ADR cells at 0.3 uM after 48 hrs by immunoblot analysis in presence of caspase 9 inhibitor; assay type: cell-based
MCF/WT [12] = assay: Induction of apoptosis in human drug sensitive MCF/WT cells assessed as annexin V binding to phosphatidylserine at 0.3 uM after 6 hrs; assay type: functional, cell-based
Rhodopsin kinase GRK1 = target: T1, Rhodopsin kinase GRK1 (Homo sapiens, UniProt Q15835); assay: Inhibition of rhodopsin kinase
T1 sequence (Q15835 whole entry): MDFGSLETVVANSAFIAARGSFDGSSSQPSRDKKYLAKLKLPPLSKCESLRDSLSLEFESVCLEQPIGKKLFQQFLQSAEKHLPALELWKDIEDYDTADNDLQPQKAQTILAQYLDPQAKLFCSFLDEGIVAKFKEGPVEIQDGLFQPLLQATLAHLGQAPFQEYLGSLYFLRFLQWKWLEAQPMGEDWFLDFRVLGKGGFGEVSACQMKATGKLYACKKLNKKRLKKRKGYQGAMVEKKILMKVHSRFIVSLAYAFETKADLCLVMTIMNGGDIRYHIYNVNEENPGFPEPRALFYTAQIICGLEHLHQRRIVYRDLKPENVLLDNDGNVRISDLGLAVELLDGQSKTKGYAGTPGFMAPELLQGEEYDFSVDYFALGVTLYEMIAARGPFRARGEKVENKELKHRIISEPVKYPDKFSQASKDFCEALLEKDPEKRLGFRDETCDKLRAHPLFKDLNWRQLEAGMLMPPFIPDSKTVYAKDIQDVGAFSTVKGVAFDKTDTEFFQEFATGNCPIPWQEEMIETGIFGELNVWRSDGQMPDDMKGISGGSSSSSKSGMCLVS

[13] = target: T2, c-Jun N-terminal kinase, JNK (Homo sapiens) (UniProt P45983+P53779+P45984); assay: Induction of JNK activity in human multidrug resistant MCF/ADR cells assessed as mitochondrial localization of phosphorylated JNK with Bcl-x/l; assay type: cell-based
MCF/WT [14] = assay: Induction of apoptosis in human drug-sensitive MCF/WT cells assessed as cleavage of caspase 9 at 0.3 uM by immunoblot analysis; assay type: functional, cell-based
MCF/ADR [15] = assay: Induction of apoptosis in human multidrug resistant MCF/ADR cells assessed as accumulation of PARP at 0.3 uM after 72 hrs by immunoblot analysis; assay type: functional, cell-based
MCF/ADR [16] = assay: Reduction in induction of apoptosis in human multidrug resistant MCF/ADR cells assessed as suppression of lamin A cleavage at 0.3 uM after 48 hrs by immunoblot analysis in presence of rottlerin; assay type: functional, cell-based
MCF/ADR [17] = assay: Increase in p21CIP accumulation in human multidrug resistant MCF/ADR cells at 0.3 uM after 48 hrs by immunoblot analysis; assay type: functional, cell-based
MCF = assay: Induction of c-Jun expression in human drug-sensitive MCF cells at 0.3 uM; assay type: functional, cell-based
[18] = Inhibition of PKA
[19] = Cell cycle arrest in human drug-sensitive MCF/WT cells assessed as accumulation at sub G0/G1 phase at 0.3 uM after 48 hrs by propidium fluorescence flow cytometry; assay type: functional, cell-based
MCF/ADR [20] = assay: Induction of apoptosis in human multidrug resistant MCF/ADR cells assessed as activation of caspase 9 at 0.3 uM by immunoblot analysis; assay type: functional, cell-based
[21] = target: T2, c-Jun N-terminal kinase, JNK (Homo sapiens); assay: Induction of JNK phosphorylation in human multidrug resistant MCF/ADR cells transfected with PKCdelta siRNA at 0.3 uM after 48 hrs by immunocytochemical analysis; assay type: cell-based
[22] = Cell cycle arrest in human multidrug resistant MCF/ADR cells assessed as accumulation at G2/M phase at 0.3 uM after 24 hrs by propidium fluorescence flow cytometry; assay type: functional, cell-based
[23] = Cell cycle arrest in human multidrug resistant MCF/ADR cells assessed as accumulation at G0/G1 phase at 0.3 uM after 48 hrs by propidium fluorescence flow cytometry; assay type: functional, cell-based
[24] = target: Transcription factor Jun (Homo sapiens) (UniProt P05412); assay: Induction of c-Jun phosphorylation in human drug-sensitive MCF/WT cells at 0.3 uM; assay type: cell-based
MDA-MB-231 = assay: Induction of apoptosis in human multidrug resistant MDA-MB-231 cells assessed as accumulation of PARP at 0.3 uM after 48 hrs by immunoblot analysis; assay type: functional, cell-based
MCF/WT [25] = assay: Induction of apoptosis in human drug-sensitive MCF/WT cells assessed as cleavage of lamin A at 0.3 uM by immunoblot analysis; assay type: functional, cell-based
MCF/WT [26] = assay: Increase in Bcl-x/s levels in human drug-sensitive MCF/WT cells at 0.3 uM by immunoblot analysis; assay type: functional, cell-based
[27] = target: Transcription factor Jun (Homo sapiens) (UniProt P05412); assay: Reduction in induction of c-Jun phosphorylation in human multidrug resistant MCF/ADR cells at 0.3 uM after 48 hrs by immunoblot analysis in presence of rottlerin; assay type: cell-based
MCF/ADR [28] = assay: Cytocidal effect in human multidrug resistant MCF/ADR cells assessed as decrease in number of viable cells at 0.1 uM after 1 hr measured after 72 hrs in absence of drug by MTT colorimetric assay; assay type: functional, cell-based
MDA-MB-468 = assay: Induction of apoptosis in human multidrug resistant MDA-MB-468 cells assessed as accumulation of PARP at 0.3 uM after 48 hrs by immunoblot analysis; assay type: functional, cell-based

Transcription factor Jun (Homo sapiens), sequence (P05412 whole entry): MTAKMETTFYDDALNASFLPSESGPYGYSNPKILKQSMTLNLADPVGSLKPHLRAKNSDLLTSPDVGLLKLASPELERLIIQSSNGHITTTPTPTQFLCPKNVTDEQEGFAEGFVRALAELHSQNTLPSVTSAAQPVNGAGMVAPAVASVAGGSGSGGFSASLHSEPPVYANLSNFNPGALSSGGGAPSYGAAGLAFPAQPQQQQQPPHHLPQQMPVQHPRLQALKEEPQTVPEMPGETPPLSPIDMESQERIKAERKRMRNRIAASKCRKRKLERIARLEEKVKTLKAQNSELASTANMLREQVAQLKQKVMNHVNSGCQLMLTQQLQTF

NC(=O)c1cn([C@@H]2O[C@H](CO)[C@@H](O)[C@H]2O)c2ncnc(N)c12 [SANGIVAMYCIN]
Activity (MCF/ADR [1]): Active | Activity (MCF/ADR [2]): Active | Activity (MCF/WT [3]): inactive | Activity (MCF/ADR [4]): inactive | Activity [5]: 8% | Activity [6]: 28% | Activity (MCF/ADR [7]): Active | Activity [8]: 4% | Activity (MCF/ADR [9]): Active | Activity [10]: 95% | Activity [11]: inactive | Activity (MCF/WT [12]): inactive | Ki (Rhodopsin kinase GRK1): 0.18 µM | Activity [13]: Active | Activity (MCF/WT [14]): inactive | Activity (MCF/ADR [15]): Active | Activity (MCF/ADR [16]): Active | Activity (MCF/ADR [17]): inactive | Activity (MCF): Active | IC50 [18]: 50 µM | Activity [19]: 3% | Activity (MCF/ADR [20]): Active | Activity [21]: inactive | Activity [22]: 33% | Activity [23]: 20% | Activity [24]: inactive | Activity (MDA-MB-231): Active | Activity (MCF/WT [25]): inactive | Activity (MCF/WT [26]): Active | Activity [27]: Active | Activity (MCF/ADR [28]): Active | Activity (MDA-MB-468): Active

Reference: ChEMBL document CHEMBL1156449, “The nucleoside analog sangivamycin induces apoptotic cell death in breast carcinoma MCF7/adriamycin-resistant cells via protein kinase Cdelta and JNK activation” (J Biol Chem, 2007)
